Measured values: patent US20240226083A9, “MEDICAMENT FOR TREATMENT AND/OR PROPHYLACTIC TREATMENT OF CANCERS” (Belina Pharma AB, priority 2019, published 2024)

Key:
[1] = test system: patients with pancreatic cancer; assay: Swedish nation-wide register study, cancer specific survival of antihistamine users vs non-users: pancreatic cancer; assay type: in vivo, human; conditions: for effect of use on pancreatic cancer survival: users vs non-users, in words
Method: (§1) Both peri- and post-diagnostic antihistamine use was analyzed, using Cox regression models, as well as different subgroups of patients with regard to age, gender (as a proxy for sex) and tumor status.
(§2) Material and methods Linking the Cancer Registry with the Drug Prescription Registry and Cause of Death Registry the survival of over 500 000 cancer patients with cancer in the breast-, prostate, ventrikel, pancreas, kidney, colo-rectal, lung, uterus, ovary, brain, melanoma, lymph gland and bone marrow was studied between 2005-2014.
(§3) Use of the six major antihistamines was established using the Swedish Prescribed Drug Register, a record of all dispensed prescribed pharmaceuticals in Sweden since July 1st 2005. To be included in the registry at least 2 weeks of prescription is required. Prescription free antihistamine use, non-dispensed doses, or use of other, less common, types of antihistamines is here considered non-use. Causes of death were obtained from the Swedish Cause of Death Register, a database where all deaths have been recorded since 1952. Data was pseudo-anonymized and the study was approved by the Regional Ethics Board.
(§4) We analyzed both the peri- and cumulative post-diagnostic use of antihistamines among […]. Peri-diagnostic use was a proxy for ever-use, and is here defined as use within six months pre-diagnosis and six months post-diagnosis, where the main antihistamine (in terms of dispensed defined daily doses, or DDDs) used by each individual during this time was identified. The analysis was done using a Cox regression model with time to even or censoring in years as a time scale. Subgroup analyses were made for groups based on age and gender (as a proxy for sex).
(§5) For the cumulative post-diagnostic antihistamine use analysis, mortality rates for antihistamine users were compared to those of non-users through a Cox regression model allowing for time varying covariates, and survival time was measured in years since diagnosis. […] The impact of the cumulative DDDs was assessed after log transformation of the DDDs plus one3. […]

[2] = test system: patients with gastric cancer; assay: Swedish nation-wide register study, cancer specific survival of antihistamine users vs non-users: gastric cancer; assay type: in vivo, human; conditions: for effect of use on gastric cancer survival: users vs non-users, in words
Method: as §1, §2, §3, §4, §5

[3] = test system: patients with ovarian cancer; assay: Swedish nation-wide register study, cancer specific survival of antihistamine users vs non-users: ovarian cancer; assay type: in vivo, human; conditions: for effect of use on ovarian cancer survival: users vs non-users, in words
Method: as §1, §2, §3, §4
(§6) For the cumulative post-diagnostic antihistamine use analysis, mortality rates for antihistamine users were compared to those of non-users through a Cox regression model allowing for time varying covariates, and survival time was measured in years since diagnosis. This allowed for a single individual to provide data as both a non-user and user of different antihistamines. The impact of the cumulative DDDs was assessed after log transformation of the DDDs plus one3. Cox regression analyses were stratified for patient age at diagnosis, tumor size and node status (T and N status, respectively). A lag-time analysis was performed as described by Tamim et al. and Richardson et al. Statistical analyses were performed using R version XXX6.
(§7) Information on stage, socio-economic factors, tumour therapies, and prognostic tumour factors are not present in the national registries.
(§8) The confidence interval (95% CI) indicates the level of uncertainty around the measure of effect. A 95% confidence interval means that the confidence interval covers the true value in 95 of 100 studies performed. […]

all tumour types = assay: Swedish nation-wide register study, cancer specific survival of antihistamine users vs non-users: across tumour types; assay type: in vivo, human; conditions: for effect of use on survival, all tumour types: users vs non-users, in words
Method: as §1, §2, §3, §4, §6, §7, §8

breast cancer [4] = conditions: earlier filing, in words; cited from earlier work
breast cancer [5] = assay: Swedish nation-wide register study, cancer specific survival of antihistamine users vs non-users: breast cancer; assay type: in vivo, human; conditions: in words
Method: as §1, §2
Use of the six major antihistamines was established using the Swedish Prescribed Drug Register, a record of all dispensed prescribed pharmaceuticals in Sweden since July 1st 2005. To be included in the registry at least 2 weeks of prescription is required. […] Causes of death were obtained from the Swedish Cause of Death Register, a database where all deaths have been recorded since 1952. […]
We analyzed both the peri- and cumulative post-diagnostic use of antihistamines among melanoma patients. […]
as §5

[6] = test system: patients with colo-rectal cancer; assay: Swedish nation-wide register study, cancer specific survival of antihistamine users vs non-users: colorectal cancer; assay type: in vivo, human
[7] = test system: patients with prostate cancer; assay: Swedish nation-wide register study, cancer specific survival of antihistamine users vs non-users: prostate cancer; assay type: in vivo, human; conditions: in words
Method: (§9) For the cumulative post-diagnostic antihistamine use analysis, mortality rates for antihistamine users were compared to those of non-users through a Cox regression model allowing for time varying covariates, and survival time was measured in years since diagnosis. This allowed for a single individual to provide data as both a non-user and user of different antihistamines. The impact of the cumulative DDDs was assessed after log transformation of the DDDs plus one3. Cox regression analyses were stratified for patient age at diagnosis, tumor size and node status (T and N status, respectively). […]

[8] = test system: patients with brain cancer; assay: Swedish nation-wide register study, cancer specific survival of antihistamine users vs non-users: brain cancer; assay type: in vivo, human; conditions: in words
[9] = test system: patients with Hodgkin's disease; assay: Swedish nation-wide register study, cancer specific survival of antihistamine users vs non-users: Hodgkin's disease; assay type: in vivo, human
[10] = test system: patients with uterus cancer; assay: Swedish nation-wide register study, cancer specific survival of antihistamine users vs non-users: uterine cancer; assay type: in vivo, human; conditions: in words
[11] = test system: patients with lung cancer; assay: Swedish nation-wide register study, cancer specific survival of antihistamine users vs non-users: lung cancer; assay type: in vivo, human
[12] = test system: lympho-hematopoetic malignancies; assay: Swedish nation-wide register study, cancer specific survival of antihistamine users vs non-users: lympho-hematopoetic malignancies; assay type: in vivo, human; conditions: in words
Method: as §9

Structure (SMILES): O=C(O)COCCN1CCN(C(c2ccccc2)c2ccc(Cl)cc2)CC1 (stereo not shown) [Ceterizine, cetirizine]
- effect of use on pancreatic cancer survival [1]: better survival
- effect of use on gastric cancer survival [2]: better survival
- effect of use on ovarian cancer survival [3]: better survival

Structure (SMILES): CN1CCC[C@@H]1CCO[C@](C)(c1ccccc1)c1ccc(Cl)cc1 [Clemastine, clemastine]
- effect of use on survival, all tumour types (all tumour types): consistently showed a worse survival

Structure (SMILES): CC(C)(C)c1ccc(C(=O)CCCN2CCC(OC(c3ccccc3)c3ccccc3)CC2)cc1 [Ebastine, ebastine]
- effect on breast cancer survival (WO 2016/116438) (breast cancer [4]): positive effect
- effect of use on breast cancer survival (breast cancer [5]): increased breast cancer survival

Structure (SMILES): Clc1ccc2c(c1)CCc1cccnc1C2=C1CCNCC1 [desloratadine]
- 5 year survival chance increased by (colorectal cancer) ([6]; colorectal cancer, baseline 5 year survival about 65% 2016, FIG. 1): 15%
- effect of use on colorectal cancer survival ([6]; users vs non-users, in words): consistently beneficial effect
- effect of use on prostate cancer survival [7]: consistently beneficial effect
- effect of use on brain cancer survival [8]: no effect
- effect on breast cancer survival (WO 2016/116438) (breast cancer [4]): positive effect
- 5 year survival chance increased by (Hodgkin's disease) ([9]; Hodgkin's disease, baseline 5 year survival about 86% 2016, FIG. 1): 17%
- effect of use on Hodgkin's disease survival ([9]; users vs non-users, in words): strong survival benefit
- 5 year survival chance increased by (pancreatic cancer) ([1]; pancreatic cancer, baseline 5 year survival about 8% 2016, FIG. 1): 35%
- effect of use on pancreatic cancer survival [1]: consistently beneficial effect
- effect of use on uterine cancer survival [10]: no effect
- 5 year survival chance increased by (gastric cancer) ([2]; gastric cancer, baseline 5 year survival 25% 2016, FIG. 1): 30%
- effect of use on gastric cancer survival [2]: consistently beneficial effect
- curative effect suggested by survival curves (all tumour types; said cancers, survival curves with follow up parallel to non-treated, FIGS. 7 to 18): 10-20%
- 5 year survival chance increased by (lung cancer) ([11]; lung cancer, baseline 5 year survival about 20% 2016, FIG. 1): 15%
- effect of use on lung cancer survival ([11]; users vs non-users, in words): consistently beneficial effect
- effect of use on survival in lympho-hematopoetic malignancies [12]: no effect
- effect of use on breast cancer survival (breast cancer [5]): consistently beneficial effect
- 5 year survival chance increased by (ovarian cancer) ([3]; ovarian cancer, baseline 5 year survival about 55% 2016, FIG. 1): 17%
- effect of use on ovarian cancer survival [3]: consistently beneficial effect

Structure (SMILES): CC(C)(C(=O)O)c1ccc(C(O)CCCN2CCC(C(O)(c3ccccc3)c3ccccc3)CC2)cc1 (stereo not shown) [fexofenadine]
- effect of use on survival, all tumour types (all tumour types): insignificant

Structure (SMILES): CCOC(=O)N1CCC(=C2c3ccc(Cl)cc3CCc3cccnc32)CC1 [loratadine]
- course of survival curves relative to non-users (all tumour types; FIGS. 7 to 18, in words): most survival curves became parallel to non-users suggesting a long time curative effect
- effect of use on ovarian cancer survival [3]: survival was better
